Patent US8815915B2, “Benzofuran-2-sulfonamides pyridine derivatives as chemokine receptor modulators” (Allergan, Inc., priority 2012, dated 2014)

Target: T1, CCR2 receptor (Homo sapiens, UniProt P41597)
T1 construct: expressed in transfected cells
Assay: compound-induced calcium activity on FLIPR Tetra in HEK-Gqi5 cells stably expressing CCR2
Assay type: cell-based
Details: CCR2 receptor, HEK-Gqi5 cells stably expressing CCR2, calcium FLIPR Tetra; for IC50: read-out: IC50
Protocol: HEK-Gqi5 cells stably expressing CCR2 were cultured in (DMEM high glucose, 10% FBS, 1% PSA, 400 μg/ml geneticin and 50 μg/ml hygromycin. Appropriate positive control chemokines (MCP-1, MIP1A or RANTES) was used as the positive control agonist for screening compound-induced calcium activity assayed on the FLIPR^Tetra. The drug plates were prepared in 384-well microplates using the EP3 and the MultiPROBE robotic liquid handling systems. Compounds were synthesized and tested for CCR2 activity.

T1 sequence (P41597 whole entry): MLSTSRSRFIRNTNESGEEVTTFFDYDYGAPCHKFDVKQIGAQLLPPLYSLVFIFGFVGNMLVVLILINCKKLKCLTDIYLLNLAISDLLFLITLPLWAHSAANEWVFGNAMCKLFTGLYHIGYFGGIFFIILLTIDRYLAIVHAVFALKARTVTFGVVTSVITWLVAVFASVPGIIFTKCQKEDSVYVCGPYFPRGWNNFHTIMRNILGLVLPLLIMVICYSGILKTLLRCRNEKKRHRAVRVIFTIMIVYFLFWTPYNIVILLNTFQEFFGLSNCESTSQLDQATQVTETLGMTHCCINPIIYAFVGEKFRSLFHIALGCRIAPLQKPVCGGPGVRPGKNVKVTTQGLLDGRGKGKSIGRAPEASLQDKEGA

% ANTAGONISM	IC50	SMILES
100%	0.027 µM	O=S(=O)(Nc1cccnc1[S+]([O-])Cc1ccccc1)c1cc2ccccc2o1 (stereo not shown) [Compound 9, N-[2-(benzylsulfinyl)pyridin-3-yl]-1-benzofuran-2-sulfonamide]
95%	0.016 µM	O=S(=O)(Cc1ccccc1)c1ncccc1NS(=O)(=O)c1cc2ccccc2o1 [Compound 10, N-[2-(benzylsulfonyl)pyridin-3-yl]-1-benzofuran-2-sulfonamide]
65%	0.469 µM	O=S(=O)(Nc1cc(F)cnc1Sc1ccccc1)c1cc2ccccc2o1 [Compound 40, N-[5-fluoro-2-(phenylsulfanyl)pyridin-3-yl]-1-benzofuran-2-sulfonamide]
97%	0.18 µM	COC(=O)c1ccccc1CS(=O)(=O)c1ncc(Cl)cc1NS(=O)(=O)c1cc2ccccc2o1 [Compound 38, methyl 2-[({3-[(1-benzofuran-2-ylsulfonyl)amino]-5-chloropyridin-2-yl}sulfonyl)methyl]benzoate]
100%	0.255 µM	Nc1cccc(C[S+]([O-])c2ncccc2NS(=O)(=O)c2cc3ccccc3o2)c1 (stereo not shown) [Compound 12, N-{2-[(3-aminobenzyl)sulfinyl]pyridin-3-yl}-1-benzofuran-2-sulfonamide]
102%	0.251 µM	Cc1ncccc1COc1ncc(Cl)cc1NS(=O)(=O)c1cc2ccccc2o1 [Compound 33, N-{5-chloro-2-[(2-methylpyridin-3-yl)methoxy]pyridin-3-yl}-1-benzofuran-2-sulfonamide]
94%	0.031 µM	O=S(=O)(Nc1cc(Cl)cnc1[S+]([O-])Cc1ccccc1)c1cc2ccccc2o1 (stereo not shown) [Compound 2, N-[2-(benzylsulfinyl)-5-chloropyridin-3-yl]-1-benzofuran-2-sulfonamide]
58%		O=C(O)c1ccccc1C[S+]([O-])c1ncccc1NS(=O)(=O)c1cc2ccccc2o1 (stereo not shown) [Compound 59, 2-[({3-[(1-benzofuran-2-ylsulfonyl)amino]pyridin-2-yl}sulfinyl)methyl]benzoic acid]
95%	0.032 µM	O=S(=O)(Nc1cc(Cl)cnc1SCc1cccnc1)c1cc2ccccc2o1 [Compound 4, N-{5-chloro-2-[(pyridin-3-ylmethyl)thio]pyridin-3-yl}-1-benzofuran-2-sulfonamide]
57%	1.44 µM	Cc1cnc(S(=O)(=O)c2ccccc2)c(NS(=O)(=O)c2cc3ccccc3o2)c1 [Compound 46, N-[5-methyl-2-(phenylsulfonyl)pyridin-3-yl]-1-benzofuran-2-sulfonamide]
98%	0.493 µM	O=C(O)c1ccccc1CSc1ncccc1NS(=O)(=O)c1cc2ccccc2o1 [Compound 57, 2-[({3-[(1-benzofuran-2-ylsulfonyl)amino]pyridin-2-yl}sulfanyl)methyl]benzoic acid]
90%		O=C(O)c1ccccc1C[S+]([O-])c1ncc(Cl)cc1NS(=O)(=O)c1cc2ccccc2o1 (stereo not shown) [Compound 43, 2-[({3-[(1-benzofuran-2-ylsulfonyl)amino]-5-chloropyridin-2-yl}sulfinyl)methyl]benzoic acid]
5%	1.95 µM	O=C(O)c1ccccc1[S+]([O-])c1ncc(Cl)cc1NS(=O)(=O)c1cc2ccccc2o1 (stereo not shown) [Compound 50, 2-({3-[(1-benzofuran-2-ylsulfonyl)amino]-5-chloropyridin-2-yl}sulfinyl)benzoic acid]
100%	0.142 µM	Nc1cccc(CS(=O)(=O)c2ncc(Cl)cc2NS(=O)(=O)c2cc3ccccc3o2)c1 [Compound 20, N-(2-((3-aminobenzyl)sulfonyl)-5-chloropyridin-3-yl)benzofuran-2-sulfonamide]
98%	0.095 µM	Nc1cccc(CSc2ncc(Cl)cc2NS(=O)(=O)c2cc3ccccc3o2)c1 [Compound 18, Benzofuran-2-sulfonic acid [2-(3-amino-benzylsulfanyl)-5-chloro-pyridin-3-yl]-amide]
